Like-named read-outs stand apart in the source and are kept apart here. One block for each molecule: values may come before it.
Target: Polθ protein (amino acids 2-2590) (Homo sapiens, UniProt O75417)
Assay: Polθ full length enzyme potency assay (PicoGreen)
Settings: full length N-His, C-term FLAG tagged Polθ, PicoGreen fluorescence, 12 point concentration response

Polθ protein (amino acids 2-2590), sequence (O75417 2-2590): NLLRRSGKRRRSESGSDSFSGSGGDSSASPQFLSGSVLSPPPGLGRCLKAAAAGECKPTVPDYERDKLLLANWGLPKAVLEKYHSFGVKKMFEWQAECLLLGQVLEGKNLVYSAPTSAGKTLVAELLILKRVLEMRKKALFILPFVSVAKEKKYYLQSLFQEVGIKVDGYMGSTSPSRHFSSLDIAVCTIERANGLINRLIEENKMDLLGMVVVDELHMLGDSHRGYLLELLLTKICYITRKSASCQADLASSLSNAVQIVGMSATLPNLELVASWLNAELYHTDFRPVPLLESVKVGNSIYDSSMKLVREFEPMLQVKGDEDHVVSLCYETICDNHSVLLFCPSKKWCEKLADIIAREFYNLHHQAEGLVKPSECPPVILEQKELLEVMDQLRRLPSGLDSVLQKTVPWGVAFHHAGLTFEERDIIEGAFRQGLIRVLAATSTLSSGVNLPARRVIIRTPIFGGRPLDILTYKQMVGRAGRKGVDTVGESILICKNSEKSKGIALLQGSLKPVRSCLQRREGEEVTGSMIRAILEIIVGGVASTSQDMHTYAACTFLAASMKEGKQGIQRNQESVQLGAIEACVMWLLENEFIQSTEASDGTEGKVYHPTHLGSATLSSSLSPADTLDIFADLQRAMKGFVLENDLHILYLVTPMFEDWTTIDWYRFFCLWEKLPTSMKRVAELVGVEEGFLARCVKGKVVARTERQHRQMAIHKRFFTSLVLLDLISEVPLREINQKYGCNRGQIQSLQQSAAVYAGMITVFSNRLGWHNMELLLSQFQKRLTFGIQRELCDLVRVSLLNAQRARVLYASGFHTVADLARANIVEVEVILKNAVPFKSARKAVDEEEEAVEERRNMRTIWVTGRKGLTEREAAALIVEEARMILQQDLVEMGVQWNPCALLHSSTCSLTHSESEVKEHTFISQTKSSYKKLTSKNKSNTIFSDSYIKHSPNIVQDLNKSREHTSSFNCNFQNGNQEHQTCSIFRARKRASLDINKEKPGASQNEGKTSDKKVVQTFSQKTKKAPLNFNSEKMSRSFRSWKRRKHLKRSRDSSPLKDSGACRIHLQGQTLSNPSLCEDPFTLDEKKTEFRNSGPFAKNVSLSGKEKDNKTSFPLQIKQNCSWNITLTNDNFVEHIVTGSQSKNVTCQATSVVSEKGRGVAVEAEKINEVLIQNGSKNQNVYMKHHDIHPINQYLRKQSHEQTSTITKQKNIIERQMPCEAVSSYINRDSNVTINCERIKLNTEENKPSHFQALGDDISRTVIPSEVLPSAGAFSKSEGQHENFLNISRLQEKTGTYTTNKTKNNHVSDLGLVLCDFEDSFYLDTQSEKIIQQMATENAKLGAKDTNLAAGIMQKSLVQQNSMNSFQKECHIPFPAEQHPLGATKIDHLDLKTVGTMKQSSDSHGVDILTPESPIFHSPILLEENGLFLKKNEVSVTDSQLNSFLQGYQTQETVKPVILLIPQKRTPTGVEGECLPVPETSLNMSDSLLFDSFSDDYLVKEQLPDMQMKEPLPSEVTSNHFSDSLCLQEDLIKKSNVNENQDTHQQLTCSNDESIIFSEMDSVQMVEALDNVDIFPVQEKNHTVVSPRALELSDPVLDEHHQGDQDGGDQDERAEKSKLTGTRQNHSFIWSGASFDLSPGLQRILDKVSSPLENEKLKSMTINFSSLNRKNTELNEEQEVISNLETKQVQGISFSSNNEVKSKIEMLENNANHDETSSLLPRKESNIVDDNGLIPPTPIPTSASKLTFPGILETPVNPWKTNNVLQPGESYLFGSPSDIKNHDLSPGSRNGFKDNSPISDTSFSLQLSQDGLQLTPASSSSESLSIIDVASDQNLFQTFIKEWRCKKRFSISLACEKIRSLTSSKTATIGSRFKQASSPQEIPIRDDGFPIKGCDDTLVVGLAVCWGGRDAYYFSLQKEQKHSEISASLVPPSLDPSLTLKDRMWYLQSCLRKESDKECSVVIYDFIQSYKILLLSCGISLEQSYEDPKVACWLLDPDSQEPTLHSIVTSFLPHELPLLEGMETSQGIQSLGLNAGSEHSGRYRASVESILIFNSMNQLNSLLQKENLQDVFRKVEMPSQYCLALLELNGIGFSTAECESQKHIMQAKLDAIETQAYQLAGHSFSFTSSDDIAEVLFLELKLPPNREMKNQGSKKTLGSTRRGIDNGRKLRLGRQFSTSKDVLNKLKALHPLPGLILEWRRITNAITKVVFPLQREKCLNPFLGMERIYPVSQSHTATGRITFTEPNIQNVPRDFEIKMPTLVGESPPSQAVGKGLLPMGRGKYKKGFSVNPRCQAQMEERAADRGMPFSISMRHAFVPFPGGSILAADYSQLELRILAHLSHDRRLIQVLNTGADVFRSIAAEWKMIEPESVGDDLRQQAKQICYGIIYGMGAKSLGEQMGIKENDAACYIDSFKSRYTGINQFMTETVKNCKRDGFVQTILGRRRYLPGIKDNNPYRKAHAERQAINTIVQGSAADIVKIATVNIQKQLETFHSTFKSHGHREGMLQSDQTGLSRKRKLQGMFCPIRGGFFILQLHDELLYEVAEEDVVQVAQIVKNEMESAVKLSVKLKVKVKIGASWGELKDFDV

SMILES: Cc1cc(C)c(C#N)c(N2C[C@@H](O)C[C@H]2C(=O)N(C)c2cccc(CF)c2)n1 [Example 11, (2S,4S)-1-(3-Cyano-4,6-dimethylpyridin-2-yl)-N-(3-(fluoromethyl)phenyl)-4-hydroxy-N-methylpyrrolidine-2-carboxamide]
IC50 (Polθ IC50 (nM)): 452 nM

SMILES: CCN(C(=O)[C@@H]1C[C@H](N[C@@H]2CCC[C@H]2O)CN1c1cc(C(F)(F)F)cc(C)n1)c1ccc(F)c(F)c1 [Example 133, (2S,4S)-N-(3,4-Difluorophenyl)-N-ethyl-4-(((1R,2R)-2-hydroxycyclopentyl)amino)-1-(6-methyl-4-(trifluoromethyl)pyridin-2-yl)pyrrolidine-2-carboxamide]
IC50 (Polθ IC50 (nM)): 122 nM

SMILES: Cc1cccc(N(C)C(=O)[C@@H]2C[C@H](O)CN2c2nc(N(C)C)cc(C(F)(F)F)c2C#N)c1 [Example 32, (2S,4S)-1-(3-Cyano-6-(dimethylamino)-4-(trifluoromethyl)pyridin-2-yl)-4-hydroxy-N-methyl-N-(m-tolyl)pyrrolidine-2-carboxamide]
IC50 (Polθ IC50 (nM)): 209 nM

SMILES: Cc1cc(C(F)(F)F)cc(N2C(=O)[C@@H](O)[C@@H](O)[C@H]2C(=O)N(C)c2ccc3cnn(C)c3c2)n1 [Example 168, (2S,3S,4S)-3,4-Dihydroxy-N-methyl-N-(1-methyl-1H-indazol-6-yl)-1-(6-methyl-4-(trifluoromethyl)pyridin-2-yl)-5-oxopyrrolidine-2-carboxamide]
IC50 (Polθ IC50 (nM)): 71 nM

SMILES: Cc1cc(C)c(C#N)c(N2C[C@@H](O)C[C@H]2C(=O)N(C)c2ccc(F)c(CF)c2)n1 [Example 14, (2S,4S)-1-(3-Cyano-4,6-dimethylpyridin-2-yl)-N-(4-fluoro-3-(fluoromethyl)phenyl)-4-hydroxy-N-methylpyrrolidine-2-carboxamide]
IC50 (Polθ IC50 (nM)): 415 nM

SMILES: Cc1cc(C(F)(F)F)cc(N2C(=O)OC[C@H]2C(=O)N(C)c2ccc(F)c(O)c2)n1 [Example 106, (S)—N-(4-Fluoro-3-hydroxyphenyl)-N-methyl-3-(6-methyl-4-(trifluoromethyl)pyridin-2-yl)-2-oxooxazolidine-4-carboxamide]
IC50 (Polθ IC50 (nM)): 324 nM

SMILES: CN(C(=O)[C@@H]1COC(=O)N1c1cc(C(C)(C)C)cc(Cl)n1)c1ccc(F)c(Cl)c1 [Example 122, (S)-3-(4-(tert-Butyl)-6-chloropyridin-2-yl)-N-(3-chloro-4-fluorophenyl)-N-methyl-2-oxooxazolidine-4-carboxamide]
IC50 (Polθ IC50 (nM)): 41 nM

SMILES: Cc1cc(C(F)(F)F)cc(N2C(=O)[C@@H](O)[C@@H](O)[C@H]2C(=O)N(C)c2ccc3c(n2)N(C)CCO3)n1 [Example 169, (2S,3S,4S)-3,4-Dihydroxy-N-methyl-N-(4-methyl-3,4-dihydro-2H-pyrido[3,2-b][1,4]oxazin-6-yl)-1-(6-methyl-4-(trifluoromethyl)pyridin-2-yl)-5-oxopyrrolidine-2-carboxamide]
IC50 (Polθ IC50 (nM)): 106 nM

SMILES: CCN(C(=O)[C@@H]1C[C@@H](N)CN1c1nc(C)cc(C)c1C#N)c1cccc(C)c1 [Example 40, (2S,4R)-4-Amino-1-(3-cyano-4,6-dimethylpyridin-2-yl)-N-ethyl-N-(m-tolyl)pyrrolidine-2-carboxamide]
IC50 (Polθ IC50 (nM)): 1760 nM

SMILES: Cc1cc(C(F)(F)F)c(C#N)c(N2CCC[C@H]2C(=O)N(C)c2ccccc2)n1 [Example 1, (S)-1-(3-Cyano-6-methyl-4-(trifluoromethyl)pyridin-2-yl)-N-methyl-N-phenylpyrrolidine-2-carboxamide]
IC50 (Polθ IC50 (nM)): 72 nM

SMILES: Cc1cc(C(F)(F)F)cc(N2C(=O)N(CCN=S(C)(C)=O)C[C@H]2C(=O)N(C)c2ccc(F)c(Cl)c2)n1 [Example 228, (S)—N-(3-Chloro-4-fluorophenyl)-1-(2-((dimethyl(oxo)-16-sulfaneylidene)amino)ethyl)-N-methyl-3-(6-methyl-4-(trifluoromethyl)pyridin-2-yl)-2-oxoimidazolidine-4-carboxamide]
IC50 (Polθ IC50 (nM)): 62 nM

SMILES: Cc1cc(C(F)(F)F)cc(N2C(=O)N(CC(O)CO)C[C@H]2C(=O)N(c2ccc(F)c(Cl)c2)C2CC2)n1 (stereo partly drawn) [Example 231, (4S)—N-(3-Chloro-4-fluorophenyl)-N-cyclopropyl-1-(2,3-dihydroxypropyl)-3-(6-methyl-4-(trifluoromethyl)pyridin-2-yl)-2-oxoimidazolidine-4-carboxamide]
IC50 (Polθ IC50 (nM)): 94 nM

SMILES: CCN(C(=O)[C@@H]1C[C@H](O)CN1c1nc(C)cc(C(F)(F)F)n1)c1ccc(F)c(Cl)c1 [Example 64, (2S,4S)—N-(3-Chloro-4-fluorophenyl)-N-ethyl-4-hydroxy-1-(4-methyl-6-(trifluoromethyl)-pyrimidin-2-yl)pyrrolidine-2-carboxamide]
IC50 (Polθ IC50 (nM)): 166 nM

SMILES: Cc1cccc(N(C)C(=O)[C@@H]2COC(=O)N2c2cc(C(F)(F)F)cc(C)n2)c1 [Example 58, (S)—N-Methyl-3-(6-methyl-4-(trifluoromethyl)pyridin-2-yl)-2-oxo-N-(m-tolyl)oxazolidine-4-carboxamide]
IC50 (read-out: Polθ IC50): 7 nM

SMILES: CCN(C(=O)[C@@H]1C[C@H](N(C)[C@@H]2CCOC[C@H]2O)CN1c1cc(C(F)(F)F)cc(C)n1)c1ccc(F)c(F)c1 [Example 139, (2S,4S)—N-(3,4-Difluorophenyl)-N-ethyl-4-(((3S,4R)-3-hydroxytetrahydro-2H-pyran-4-yl)(methyl)amino)-1-(6-methyl-4-(trifluoromethyl)pyridin-2-yl)pyrrolidine-2-carboxamide]
IC50 (Polθ IC50 (nM)): 164 nM

SMILES: Cc1cc(C(F)(F)F)cc(N2C(=O)NC[C@H]2C(=O)N(C)c2ccc3sccc3n2)n1 [Example 237, (S)—N-Methyl-3-(6-methyl-4-(trifluoromethyl)pyridin-2-yl)-2-oxo-N-(thieno[3,2-b]pyridin-5-yl)imidazolidine-4-carboxamide]
IC50 (Polθ IC50 (nM)): 37 nM

Results, then the molecule that gave them:

IC50 (Polθ IC50 (nM)): 36 nM
SMILES: Cc1cc(C(C)(C)C)cc(N2C(=O)OC[C@H]2C(=O)N(C)c2ccc(F)c(Cl)c2)n1 [Example 123, (S)-3-(4-(tert-Butyl)-6-methylpyridin-2-yl)-N-(3-chloro-4-fluorophenyl)-N-methyl-2-oxooxazolidine-4-carboxamide]

IC50 (Polθ IC50 (nM)): 15 nM
SMILES: Cc1cc(C(F)(F)F)cc(N2C(=O)N(CCN3CCC(F)(F)C3)C[C@H]2C(=O)N(C)c2ccc(F)c(Cl)c2F)n1 [Example 206, (S)-N-(3-Chloro-2,4-difluorophenyl)-1-(2-(3,3-difluoropyrrolidin-1-yl)ethyl)-N-methyl-3-(6-methyl-4-(trifluoromethyl)pyridin-2-yl)-2-oxoimidazolidine-4-carboxamide]

IC50 (Polθ IC50 (nM)): 7 nM
SMILES: Cc1cc(C(F)(F)F)cc(N2C(=O)N(CCN3CCN(C)C(=O)C3)C[C@H]2C(=O)N(C)c2ccc(F)c(Cl)c2F)n1 [Example 210, (S)-N-(3-Chloro-2,4-difluorophenyl)-N-methyl-1-(2-(4-methyl-3-oxopiperazin-1-yl)ethyl)-3-(6-methyl-4-(trifluoromethyl)pyridin-2-yl)-2-oxoimidazolidine-4-carboxamide]

IC50 (Polθ IC50 (nM)): 28 nM
SMILES: Cc1cc(C(F)(F)F)cc(N2C(=O)NC[C@H]2C(=O)N(C)c2ccc3c(C)n[nH]c3c2)n1 [Example 238, (S)—N-Methyl-N-(3-methyl-1H-indazol-6-yl)-3-(6-methyl-4-(trifluoromethyl)pyridin-2-yl)-2-oxoimidazolidine-4-carboxamide]

IC50 (Polθ IC50 (nM)): 8 nM
SMILES: Cc1cc(C(F)(F)F)c(C#N)c(N2CC[C@@H](O)[C@H]2C(=O)N(C)c2ccc(F)c(Cl)c2)n1 [Example 81, (2S,3R)—N-(3-Chloro-4-fluorophenyl)-1-(3-cyano-6-methyl-4-(trifluoromethyl)pyridin-2-yl)-3-hydroxy-N-methylpyrrolidine-2-carboxamide]

IC50 (Polθ IC50 (nM)): 7 nM
SMILES: Cc1cc(C(F)(F)F)cc(N2C(=O)N(CCN3CCOCC3)C[C@H]2C(=O)N(C)c2ccc(F)c(Cl)c2)n1 [Example 194, (S)-N-(3-Chloro-4-fluorophenyl)-N-methyl-3-(6-methyl-4-(trifluoromethyl)pyridin-2-yl)-1-(2-morpholinoethyl)-2-oxoimidazolidine-4-carboxamide]

IC50 (Polθ IC50 (nM)): 11 nM
SMILES: Cc1cc(C(F)(F)F)cc(N2C(=O)N(CC(O)CN(C)C)C[C@H]2C(=O)N(C)c2ccc(F)c(Cl)c2F)n1 (stereo partly drawn) [Example 214, (4S)—N-(3-Chloro-2,4-difluorophenyl)-1-(3-(dimethylamino)-2-hydroxypropyl)-N-methyl-3-(6-methyl-4-(trifluoromethyl)pyridin-2-yl)-2-oxoimidazolidine-4-carboxamide]

IC50 (Polθ IC50 (nM)): 5 nM
SMILES: Cc1cc(C(F)(F)F)cc(N2C(=O)NC[C@H]2C(=O)N(C)c2ccc3ccn(C)c3n2)n1 [Example 234, (S)—N-Methyl-N-(1-methyl-1H-pyrrolo[2,3-b]pyridin-6-yl)-3-(6-methyl-4-(trifluoromethyl)pyridin-2-yl)-2-oxoimidazolidine-4-carboxamide]

IC50 (Polθ IC50 (nM)): 27 nM
SMILES: Cc1cc(C(F)(F)F)cc(N2C(=O)NC[C@H]2C(=O)N(C)c2ccc3cnn(C)c3c2)n1 [Example 235, (S)—N-Methyl-N-(1-methyl-1H-indazol-6-yl)-3-(6-methyl-4-(trifluoromethyl)pyridin-2-yl)-2-oxoimidazolidine-4-carboxamide]

IC50 (Polθ IC50 (nM)): 9 nM
SMILES: Cc1cc(C(F)(F)F)cc(N2C(=O)N(CCS(C)(=O)=O)C[C@H]2C(=O)N(C)c2ccc(F)c(Cl)c2)n1 [Example 180, (S)—N-(3-Chloro-4-fluorophenyl)-N-methyl-3-(6-methyl-4-(trifluoromethyl)pyridin-2-yl)-1-(2-(methylsulfonyl)ethyl)-2-oxoimidazolidine-4-carboxamide]

IC50 (Polθ IC50 (nM)): 9 nM
SMILES: Cc1cc(C(F)(F)F)cc(N2C(=O)N(CC3(CO)COC3)C[C@H]2C(=O)N(C)c2ccc(F)c(Cl)c2F)n1 [Example 186, (S)-N-(3-Chloro-2,4-difluoro-phenyl)-1-((3-(hydroxymethyl)-oxetan-3-yl)methyl)-N-methyl-3-(6-methyl-4-(trifluoromethyl)-pyridin-2-yl)-2-oxoimidazolidine-4-carboxamide]

IC50 (Polθ IC50 (nM)): 32 nM
SMILES: Cc1cc(C(F)(F)F)cc(N2C(=O)[C@H](O)[C@H](O)[C@H]2C(=O)N(C)c2ccc(F)c(Cl)c2)n1 [Example 72, (2S,3R,4R)—N-(3-Chloro-4-fluorophenyl)-3,4-dihydroxy-N-methyl-1-(6-methyl-4-(trifluoromethyl)pyridin-2-yl)-5-oxopyrrolidine-2-carboxamide]
